Laboratory results from US20150175655A1 (priority 2012, published 2015).

target: T1, NS3 genotype 3a protease (UniProt Q81258); assay: Ki determination, NS3 protease genotype 3a (fluorogenic depsipeptide substrate); format: biochemical, hepatitis C virus; details: 200 pM enzyme, 20 μM NS4A peptide, 2 μM substrate, read-out: Ki 3A
T1 construct: Purified NS3 protease domain (amino acids 1-181) of the genotype 1b and 3a virus were generated as above; fused on or other part: N-terminal hexahistidine tag and rTEV protease cleavage site (vector p28-N6H-Tev-NS3(181)3)
T1 sequence (Q81258 1033-1663): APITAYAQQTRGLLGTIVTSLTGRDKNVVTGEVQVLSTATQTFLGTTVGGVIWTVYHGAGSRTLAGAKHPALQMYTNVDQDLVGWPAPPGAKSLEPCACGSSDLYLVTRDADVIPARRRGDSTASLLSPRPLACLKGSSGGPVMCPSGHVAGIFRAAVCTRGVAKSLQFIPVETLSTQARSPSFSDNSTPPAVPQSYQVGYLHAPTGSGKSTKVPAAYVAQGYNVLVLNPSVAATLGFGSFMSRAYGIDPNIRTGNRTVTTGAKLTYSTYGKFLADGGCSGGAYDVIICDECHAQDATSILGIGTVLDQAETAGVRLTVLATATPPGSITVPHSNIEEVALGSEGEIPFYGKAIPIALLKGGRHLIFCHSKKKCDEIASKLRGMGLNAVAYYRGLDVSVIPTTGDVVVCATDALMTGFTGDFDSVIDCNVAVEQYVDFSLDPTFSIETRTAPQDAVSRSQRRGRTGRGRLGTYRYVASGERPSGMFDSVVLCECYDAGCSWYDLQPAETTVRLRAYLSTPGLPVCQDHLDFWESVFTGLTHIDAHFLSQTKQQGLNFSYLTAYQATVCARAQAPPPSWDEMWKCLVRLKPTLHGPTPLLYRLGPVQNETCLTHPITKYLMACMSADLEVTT
Text: The coding sequences for the genotype 3 HCV protease domain was amplified by RT-PCR using a Titan One Tube RT-PCR Kit (Roche, Indianapolis, Ind.) and RNA extracted from HCV-positive human serum (BBI Diagnostics, MA) using a QIAmp UltraSens Virus Kit (Qiagen, Valencia, Calif.). 5′ PCR primers were designed to encode N-terminal hexahistidine tags and to insert in-frame rTEV protease cleavage sites into the NS3 protease coding sequences. The resulting DNA fragments were cloned into pET28 yielding the expression vectors p28-N6H-Tev-NS3(181)1a and p28-N6H-Tev-NS3(181)3, respectively.
BL21AI bacteria (Invitrogen, Carlsbad, Calif.) were transformed with genotype 1b or 3 NS3 expression vectors and used to inoculate a 20 L fermentation vessel (Sartorius BBI System Inc., Bethlehem, Pa.), containing 18 L of fresh 2YT medium supplemented with 50 μg/mL kanamycin. When cell densities reached an OD600 of 1, the temperature of the cultures was reduced from 37° C. to 28° C. and induction was immediately initiated by the addition of 30 μM ZnSO4, 14 mM L-arabinose and 1 mM Isopropyl β-D-thiogalactoside (IPTG) final concentrations. Cells were harvested by centrifugation four hours post-induction and were stored as frozen pellets at −80° C. prior to NS3 protein purification.
Bacterial pellets collected from the expression of genotype 3 HCV NS3 protease were homogenized in Lysis Buffer (25 mM tris, pH 7.5 buffer containing 150 mM NaCl and 1 mM phenylmethanesulfonyl fluoride (PMSF)) and passed through a microfluidizer at 18,000 pounds/in^2. Homogenized cell lysates were centrifuged at 30,000×g for 30 minutes at 4° C. The resulting P1 pellets were washed with Wash Buffer I (25 mM tris, pH 7.5 containing 1% CHAPS) followed by centrifugation at 10,000×g for 30 minutes at 4° C. […] The resulting P3 pellets were resuspended in Solubilization Buffer (20 ml of 25 mM tris, pH 7.5 containing 150 mM NaCl and 8 M urea) and incubated at 4° C. for one hour. Solubilized proteins were passed through a 0.45 micron filter. Protein concentrations were measured and the solutions were adjusted to 40 mM DTT, incubated for 30 minutes at 4° C. and then quickly diluted into Refolding Buffer (25 mM tris, pH 8.5, 0.8 M Guanidine-HCl, 0.4 M L-Arginine, 10 mM ZnSO4) while stirring. Protein solutions were incubated at 4° C. overnight to allow refolding. Refolded proteases were centrifuged at 30,000×g for 10 minutes to remove residual precipitates. Final protein concentrations were then measured and the NS3 proteases were aliquoted, snap frozen in liquid nitrogen and stored at −80° C.
Purified NS3 protease domain (amino acids 1-181) of the genotype 1b and 3a virus were generated as above. The internally quenched fluorogenic depsipeptide substrate Ac-DED(Edans)-EEAbuψ[COO]ASK(Dabcyl)-NH2 and a synthetic peptide containing the hydrophobic core residues of the NS4A protein cofactor ([…]; NS4A peptide) were obtained from Anaspec, Inc. (San Jose, Calif.). Other chemicals and biochemicals were of reagent grade or better and were purchased from standard suppliers.
Reactions were run at room temperature in buffer consisting of 50 mM HEPES, 40% glycerol, 0.05% Triton X-100, 10 mM DTT, and 10% DMSO. The final assay solutions contained 50 pM NS3 genotype 1b protease or 200 pM genotype 3a protease, 20 μM NS4A peptide, and 4 μM substrate (genotype 1 b) or 2 μM substrate (genotype 3a). Inhibitor concentrations varied from 100 nM to 5 pM in 3-fold dilutions, and no-inhibitor controls were included.
Compound dilutions were made in DMSO at 20× final concentration. Reaction mixtures were prepared in 96-well assay plates. A solution of enzyme and NS4A peptide in assay buffer (25 μL volume with both reagents at 4× final concentration) was mixed with 45 μL assay buffer and 5 μL of either inhibitor or DMSO, and pre-incubated at room temperature for 1 hour. The reaction was started by addition of 25 μL substrate solution at 4× final concentration. […]

Point of comparison: `COc1ccc2nc3c(nc2c1)O[C@H]1CN(C(=O)[C@H](C(C)(C)C)NC(=O)O[C@@]2(C)C[C@@H]2CCCCC3)[C@H](C(=O)N[C@]2(C(=O)NS(=O)(=O)C3(C)CC3)C[C@H]2C(F)F)[C@@H]1C` [Example 45, (1aS,5S,8S,9S,10R,22aS)-5-tert-butyl-N-[(1R,2R)-2-(difluoromethyl)-1-{[(1-methylcyclopropyl)sulfonyl]carbamoyl}cyclopropyl]-14-methoxy-1a,9-dimethyl-3,6-dioxo-1,1a,3,4,5,6,9,10,18,19,20,21,22,22a-tetradecahydro-8H-7,10-methanocyclopropa[18,19][1,10,3,6]dioxadiazacyclononadecino[11,12-b]quinoxaline-8-carboxamide], Ki 0.48 nM. Against it:
- CC[C@@H]1[C@@H]2CN(C(=O)[C@H](C(C)(C)C)NC(=O)O[C@@H]3C[C@H]3CCCCC(F)(F)c3nc4ccccc4nc3O2)[C@@H]1C(=O)N[C@]1(C(=O)NS(=O)(=O)C2CC2)C[C@H]1CC [Example 54, (1aR,5S,8S,9S,10R,22aR)-5-tert-butyl-N-{(1R,2R)-1-[(cyclopropylsulfonyl)carbamoyl]-2-ethylcyclopropyl}-9-ethyl-18,18-difluoro-3,6-dioxo-1,1a,3,4,5,6,9,10,18,19,20,21,22,22a-tetradecahydro-8H-7,10-methanocyclopropa[18,19][1,10,3,6]dioxadiazacyclononadecino[11,12-b]quinoxaline-8-carboxamide] — within 1.5-fold, 0.5 nM
- CC[C@@H]1[C@@H]2CN(C(=O)[C@H](C(C)(C)C)NC(=O)O[C@@H]3C[C@H]3CCCCC(F)(F)c3nc4ccc(OC(F)F)cc4nc3O2)[C@@H]1C(=O)N[C@]1(C(=O)NS(=O)(=O)C2(C)CC2)C[C@H]1C(F)F [Example 85, (1aR,5S,8S,9S,10R,22aR)-5-tert-butyl-14-(difluoromethoxy)-N-[(1R,2R)-2-(difluoromethyl)-1-{[(1-methylcyclopropyl)sulfonyl]carbamoyl}cyclopropyl]-9-ethyl-18,18-difluoro-3,6-dioxo-1,1a,3,4,5,6,9,10,18,19,20,21,22,22a-tetradecahydro-8H-7,10-methanocyclopropa[18,19][1,10,3,6]dioxadiazacyclononadecino[11,12-b]quinoxaline-8-carboxamide] — 16-fold lower, 0.03 nM
- CC[C@@H]1[C@@H]2CN(C(=O)[C@H](C(C)(C)C)NC(=O)O[C@@H]3C[C@@H]4C[C@@H]4[C@H]3CCCCC(F)(F)c3nc4ccc(OC)cc4nc3O2)[C@@H]1C(=O)N[C@]1(C(=O)NS(=O)(=O)C2(C)CC2)C[C@H]1C(F)F [Example 61, (1aS,2aR,6S,9S,10S,11R,23aR,23bS)-6-tert-butyl-N-[(1R,2R)-2-(difluoromethyl)-1-{[(1-methylcyclopropyl)sulfonyl]carbamoyl}cyclopropyl]-10-ethyl-19,19-difluoro-15-methoxy-4,7-dioxo-1a,2,2a,4,5,6,7,10,11,19,20,21,22,23,23a,23b-hexadecahydro-1H,9H-8,11-methanocyclopropa[4′,5′]cyclopenta[1′,2′:18,19][1,10,3,6]dioxadiazacyclononade cino[11,12-b]quinoxaline-9-carboxamide] — 5.3-fold lower, 0.09 nM
- COc1ccc2nc3c(nc2c1)O[C@H]1CN(C(=O)[C@H](C(C)(C)C)NC(=O)O[C@@H]2C[C@H]2CCCCC3)[C@H](C(=O)N[C@]2(C(=O)NS(=O)(=O)C3(C)CC3)C[C@H]2C(F)F)[C@@H]1CC#N [Example 50, (1aR,5S,8S,9S,10R,22aR)-5-tert-butyl-9-(cyanomethyl)-N-[(1R,2R)-2-(difluoromethyl)-1-{[(1-methylcyclopropyl)sulfonyl]carbamoyl}cyclopropyl]-14-methoxy-3,6-dioxo-1,1a,3,4,5,6,9,10,18,19,20,21,22,22a-tetradecahydro-8H-7,10-methanocyclopropa[18,19][1,10,3,6]dioxadiazacyclononadecino[11,12-b]quinoxaline-8-carboxamide] — higher, > 100 nM
- CC[C@@H]1[C@@H]2CN(C(=O)[C@H](C(C)(C)C)NC(=O)O[C@@H]3C[C@H]3CCCCCc3nc4ccc(OC)cc4nc3O2)[C@@H]1C(=O)N[C@]1(C(=O)NS(=O)(=O)C2CC2)C[C@H]1CC [Example 3, (1aR,5S,8S,9S,10R,22aR)-5-tert-butyl-N-{(1R,2R)-1-[(cyclopropylsulfonyl)carbamoyl]-2-ethylcyclopropyl}-9-ethyl-14-methoxy-3,6-dioxo-1,1a,3,4,5,6,9,10,18,19,20,21,22,22a-tetradecahydro-8H-7,10-methanocyclopropa[18,19][1,10,3,6]dioxadiazacyclononadecino[11,12-b]quinoxaline-8-carboxamide] — within 1.5-fold, 0.56 nM

same assay, conditions: read-out: Ki 3A, 200 pM enzyme, 20 μM NS4A peptide, 2 μM substrate

Point of comparison: `CC[C@@H]1C[C@]1(NC(=O)[C@@H]1[C@H](C)[C@@H]2CN1C(=O)[C@H](C(C)(C)C)NC(=O)O[C@@H]1C[C@H]1CCCCCc1nc3ccc(OC)cc3nc1O2)C(=O)NS(=O)(=O)C1CC1` [Example 20, (1aR,5S,8S,9S,10R,22aR)-5-tert-butyl-N-{(1R,2R)-1-[(cyclopropylsulfonyl)carbamoyl]-2-ethylcyclopropyl}-14-methoxy-9-methyl-3,6-dioxo-1,1a,3,4,5,6,9,10,18,19,20,21,22,22a-tetradecahydro-8H-7,10-methanocyclopropa[18,19][1,10,3,6]dioxadiazacyclononadecino[11,12-b]quinoxaline-8-carboxamide], Ki 0.53 nM. Against it:
- COc1ccc2nc3c(nc2c1)O[C@H]1CN(C(=O)[C@H](C(C)(C)C)NC(=O)O[C@@H]2C[C@H]2CCCCC3)[C@H](C(=O)N[C@]2(C(=O)NS(=O)(=O)C3CC3)C[C@H]2C(F)F)[C@@H]1C [Example 19, (1aR,5S,8S,9S,10R,22aR)-5-tert-butyl-N-[(1R,2R)-1-[(cyclopropylsulfonyl)carbamoyl]-2-(difluoromethyl)cyclopropyl]-14-methoxy-9-methyl-3,6-dioxo-1,1a,3,4,5,6,9,10,18,19,20,21,22,22a-tetradecahydro-8H-7,10-methanocyclopropa[18,19][1,10,3,6]dioxadiazacyclononadecino[11,12-b]quinoxaline-8-carboxamide] — 4.1-fold lower, 0.13 nM
